Data as given in ChEMBL document CHEMBL5375943, “The Importance of Tracking "Missing" Metabolites: How and Why?” (J Med Chem, 2023).
pIC50: −log10 of the molar value.

Key:
[1] = Metabolic stability in human plasma assessed as half life
[2] = Elimination half life in human liver microsomes; assay type: ADME, Microsome; conditions: read-out: beta t1/2 (converted)
[3] = Oral bioavailability in ICR mouse plasma at 5 mg/kg by LC-MS/MS analysis; assay type: ADME, organism-based
[4] = AUC (0 to t) in Sprague-Dawley rat at 10 mg/kg, po; assay type: ADME, organism-based; set-up: dose 10 mg/kg, route po; conditions: in vivo
[5] = Clearance in Wistar rat at 3 mg/kg, iv incubated for 24 hrs by LC-MS/MS analysis; assay type: ADME, organism-based; conditions: in vivo
Cytochrome P450 3A4 = Cytochrome P450 3A4 (Homo sapiens, UniProt P08684); assay: Inhibition of CYP3A4 in human liver microsome; assay type: ADME, microsomes
[6] = Stability in human plasma assessed as compound remaining incubated for 10 mins relative to control; assay type: ADME, cell-free; conditions: read-out: Stability
[7] = Elimination half life in human; assay type: ADME; conditions: read-out: beta t1/2

Cytochrome P450 3A4, sequence (P08684 whole entry): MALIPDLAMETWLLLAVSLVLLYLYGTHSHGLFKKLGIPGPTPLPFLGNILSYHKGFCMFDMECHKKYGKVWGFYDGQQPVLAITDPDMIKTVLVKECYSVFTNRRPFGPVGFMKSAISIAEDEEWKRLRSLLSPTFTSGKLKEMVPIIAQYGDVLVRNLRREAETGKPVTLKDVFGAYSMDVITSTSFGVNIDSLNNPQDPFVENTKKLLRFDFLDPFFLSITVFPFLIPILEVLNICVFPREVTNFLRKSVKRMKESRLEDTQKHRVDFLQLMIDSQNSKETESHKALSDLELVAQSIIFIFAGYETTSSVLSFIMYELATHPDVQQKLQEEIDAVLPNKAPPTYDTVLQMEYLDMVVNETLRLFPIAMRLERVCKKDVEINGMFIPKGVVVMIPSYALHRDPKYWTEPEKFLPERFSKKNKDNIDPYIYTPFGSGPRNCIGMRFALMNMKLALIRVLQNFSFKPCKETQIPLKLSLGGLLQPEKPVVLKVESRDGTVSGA

Structure (SMILES): COc1ccc2[nH]c([S+]([O-])Cc3ncc(C)c(OC)c3C)nc2c1 (stereo unspecified) [OMEPRAZOLE]
- half-life [1]: 1 h

Structure (SMILES): CCc1cc(/C(C)=N/OCc2ccc(C3CCCCC3)c(C(F)(F)F)c2)ccc1CN1CC(C(=O)O[C@H]2CC[C@@]3(C)C(=CC[C@H]4[C@@H]5CC[C@H]([C@H](C)CCCC(C)C)[C@@]5(C)CC[C@@H]43)C2)C1
- half-life [2]: 155 h
- bioavailability [3]: 14.7%
- AUC(0-t) [4]: 0.19 µM·h

Structure (SMILES): C[C@H](OS(=O)(=O)O)[C@H]1CC[C@H]2[C@@H]3CC[C@H]4CC(C(=O)O)=CC[C@]4(C)[C@H]3CC[C@]12C
- half-life [2]: 171 h
- bioavailability [3]: 20.4%

Structure (SMILES): C[C@H](O)[C@H]1CC[C@H]2[C@@H]3CC[C@H]4CC(C(=O)O)=CC[C@]4(C)[C@H]3CC[C@]12C
- clearance [5]: 0.4 mL/min/kg

Structure (SMILES): OC1CC(O)(CN2CCC(COc3noc4cccc(O[C@H]5CCOC5)c34)CC2)CCO1 (stereo partly specified)
- pIC50 (Cytochrome P450 3A4): 6.22

Structure (SMILES): NCCOP(=O)(O)OC[C@@H](O)CNC(=O)c1ccncc1Nc1ccc(I)cc1F
- remaining at 10 min [6]: 30%

Structure (SMILES): C[C@H](c1nc2ncccc2c(=O)n1-c1ccc(O)cc1)N(Cc1cccnc1)C(=O)Cc1ccc(OC(F)(F)F)cc1
- pIC50 (Cytochrome P450 3A4): 6.26

Structure (SMILES): COc1ccc(Cl)cc1[C@]1(F)C(=O)Nc2cc(C(F)(F)F)ccc21 [FLINDOKALNER]
- half-life [7]: > 168 h
